We go through four compounds from ChEMBL document CHEMBL1145672, “Isolation and identification of trachyloban-19-oic and (-)-kaur-16-en-19-oic acids as antimicrobial agents from the prairie sunflower, Helianthus annuus” (1983).

The structures appear in SMILES notation. In brackets after ≈: the same amount, converted by molar mass. Activity calls are given as the source filed them. The calls are words filed in the database; no cut-off is given here.

Test [1] concerns Staphylococcus aureus. Kind of test: Antimicrobial activity against Staphylococcus aureus ATCC 13709 by agar-dilution streak method. The class given is functional.
The test system of test [2] is Mycolicibacterium smegmatis. Description: Antimicrobial activity against Mycobacterium smegmatis ATCC 607 by agar-dilution streak method. The class given is functional.
Test [3] concerns Escherichia coli. Description: Antimicrobial activity against Escherichia coli ATCC 9637 at 100 ug/mL by agar-dilution streak method. It counts as functional, organism-based.
Test [4] deals with Salmonella enterica subsp. enterica serovar Gallinarum. Kind of test: Antimicrobial activity against Salmonella gallinarum ATCC 9184 at 100 ug/mL by agar-dilution streak method. The class given is functional, organism-based.
The test system of test [5] is Klebsiella pneumoniae. Description: Antimicrobial activity against Klebsiella pneumoniae ATCC 10031 at 100 ug/mL by agar-dilution streak method. The class given is functional, organism-based.
Another test deals with Candida albicans. Kind of test: Antimicrobial activity against Candida albicans ATCC 10231at 100 ug/mL by agar-dilution streak method. It counts as functional, organism-based.
Test [6] relates to Staphylococcus aureus. Description: Antimicrobial activity against Staphylococcus aureus ATCC 13709 at 100 ug/mL by agar-dilution streak method. The class given is functional, organism-based.
In test [7] the test system is Escherichia coli. Kind of test: Antimicrobial activity against Escherichia coli ATCC 9637 by agar-dilution streak method. The class given is functional.
In test [8] the test system is Salmonella enterica subsp. enterica serovar Gallinarum. Kind of test: Antimicrobial activity against Salmonella gallinarum ATCC 9184 by agar-dilution streak method. It counts as functional.
Test [9] relates to Klebsiella pneumoniae. Kind of test: Antimicrobial activity against Klebsiella pneumoniae ATCC 10031 by agar-dilution streak method. The class given is functional.

The term MIC denotes the least concentration at which growth counts as inhibited. Lower therefore signals inhibition by little substance.

As for `C=C1C[C@@]23CC[C@H]4[C@@](C)(CCC[C@]4(C)C(=O)O)[C@@H]2CCC1C3`, the MIC in the test on Staphylococcus aureus [1] was 12.5 µg/mL (≈ 41.3 µM); in test [2], 6.25 µg/mL (≈ 20.7 µM). Further, the result (in the test with Escherichia coli [3]; in test [4]; in the test on Klebsiella pneumoniae [5]; in the test on Candida albicans) was inactive.
In the case of `C[C@@]12C[C@@]34CC[C@H]5[C@@](C)(CCC[C@]5(C)C(=O)O)[C@@H]3C[C@H]1[C@H]2C4`, the minimum inhibitory concentration (MIC) (in the test with Staphylococcus aureus [1]; in [2]) was 6.25 µg/mL (≈ 20.7 µM) each time. Also, the result (in the test with Escherichia coli [3]; in [4]; in the test with Klebsiella pneumoniae [5]; with Candida albicans) was inactive.
With `C=C1C[C@@]23CC[C@H]4[C@@](C)(CCC[C@@]4(C)C(=O)OC)[C@@H]2CC[C@@H]1C3` [KAURENOIC ACID METHYL ESTER], in [2], the MIC came to 25 µg/mL (≈ 79 µM). Moreover, the result (with Staphylococcus aureus [6]; in the test on Escherichia coli [3]; in [4]; in the test with Klebsiella pneumoniae [5]; in the test with Candida albicans) was inactive.
Take `CN[C@@H]1[C@H](O[C@H]2[C@H](O[C@H]3[C@H](O)[C@@H](O)[C@H](N=C(N)N)[C@@H](O)[C@@H]3N=C(N)N)O[C@@H](C)[C@]2(O)C=O)O[C@@H](CO)[C@H](O)[C@H]1O` [STREPTOMYCIN]: the minimum inhibitory concentration (MIC) is 3.1 µg/mL (≈ 5.33 µM) in the test with Staphylococcus aureus [1]; 12.5 µg/mL (≈ 21.5 µM) in the test on Escherichia coli [7]; 25 µg/mL (≈ 43 µM) in test [8]; 1.56 µg/mL (≈ 2.68 µM) against Klebsiella pneumoniae [9]; 0.78 µg/mL (≈ 1.34 µM) in test [2]. Moreover, the result in the test with Candida albicans was inactive.
